Reference: the NIST ThermoML archive (doi:10.1021/je700260f)

Conditions: 333.16 K, Liquid, Vibrating tube method

FC(C(F)(F)F)C(F)(F)F [1,1,1,2,3,3,3-heptafluoropropane]
Conditions | mass density [kg/m3]
17241 kPa | 1375.9
17263 kPa | 1376.1
17300 kPa | 1376.3
17322 kPa | 1376.4
17351 kPa | 1376.5
17370 kPa | 1376.8
17482 kPa | 1377.4
17509 kPa | 1377.4
17532 kPa | 1377.7
17563 kPa | 1377.9
17589 kPa | 1378
17619 kPa | 1378.1
17654 kPa | 1378.4
17680 kPa | 1378.6
17707 kPa | 1378.7
17741 kPa | 1378.9
17766 kPa | 1379.1
17788 kPa | 1379.2
17814 kPa | 1379.3
17848 kPa | 1379.5
17875 kPa | 1379.6
18144 kPa | 1381.2
18172 kPa | 1381.4
18199 kPa | 1381.6
18229 kPa | 1381.8
18263 kPa | 1382
18289 kPa | 1382
18321 kPa | 1382.2
18352 kPa | 1382.4
18378 kPa | 1382.7
18409 kPa | 1382.9
18440 kPa | 1382.9
18582 kPa | 1383.6
18605 kPa | 1383.8
18633 kPa | 1384.2
18653 kPa | 1384.2
18684 kPa | 1384.3
18715 kPa | 1384.6
18741 kPa | 1384.6
18777 kPa | 1384.9
18809 kPa | 1385.1
18836 kPa | 1385.3
18859 kPa | 1385.4
18889 kPa | 1385.6
18924 kPa | 1385.8
18951 kPa | 1385.8
18974 kPa | 1385.9
19009 kPa | 1386.3
19047 kPa | 1386.4
19071 kPa | 1386.6
19105 kPa | 1386.7
19128 kPa | 1386.7
19166 kPa | 1387
19192 kPa | 1387.1
19220 kPa | 1387.4
19248 kPa | 1387.5
19286 kPa | 1387.9
19310 kPa | 1387.8
19346 kPa | 1388
19381 kPa | 1388.3
19409 kPa | 1388.4
19445 kPa | 1388.6
19468 kPa | 1388.8
19716 kPa | 1390.1
19745 kPa | 1390.3
19776 kPa | 1390.5
19803 kPa | 1390.5
19831 kPa | 1390.7
19870 kPa | 1391
19894 kPa | 1391
19927 kPa | 1391.2
19959 kPa | 1391.4
19987 kPa | 1391.6
20022 kPa | 1391.8
20050 kPa | 1391.9
20077 kPa | 1392
20115 kPa | 1392.3
20146 kPa | 1392.4
20174 kPa | 1392.5
20207 kPa | 1392.8
20238 kPa | 1392.9
20266 kPa | 1393.1
20294 kPa | 1393.3
20328 kPa | 1393.5
20352 kPa | 1393.5
20393 kPa | 1393.9
20421 kPa | 1393.8
20453 kPa | 1394.1
20487 kPa | 1394.3
20512 kPa | 1394.4
20545 kPa | 1394.6
20579 kPa | 1394.8
20612 kPa | 1395
20640 kPa | 1395.1
20661 kPa | 1395.4
20682 kPa | 1395.2
20713 kPa | 1395.4
21425 kPa | 1399.3
21458 kPa | 1399.4
21479 kPa | 1399.5
21507 kPa | 1399.6
21537 kPa | 1399.9
21562 kPa | 1399.9
